In ChEMBL document CHEMBL3632523, “Evaluation of Improved Glycogen Synthase Kinase-3α Inhibitors in Models of Acute Myeloid Leukemia” (J Med Chem, 2015):
In brackets after ≈: the same amount, converted by molar mass. Activity calls are given as the source filed them. No cut-off for these calls is given here.

Tests used:
[1] = Aqueous solubility of the compound in water by HPLC based shake flask method; assay type: physicochemical
Sus scrofa [2] = species on record: Sus scrofa; settings: 100 nM
Sus scrofa [3] = species on record: Sus scrofa; settings: 100 nM; remark: listed apart in the source
Danio rerio [4] = assay: Toxicity in wild type zebrafish embryo in E3 medium assessed as induction of lethality treated at <60 uM dosed 24 hrs of post fertilization observed on 96 to 120 hrs of post fertilization; assay type: organism-based; settings: in vivo
Danio rerio [5] = assay: Induction of morphological abnormality in wild type zebrafish embryo in E3 medium dosed 24 hrs of post fertilization; assay type: functional, organism-based
[6] = target: T1, Glycogen synthase kinase-3 alpha (Homo sapiens, UniProt P49840); settings: NB-4, 5 to 10 uM
Target sequence in this assay (P49840 2-483 limits assumed): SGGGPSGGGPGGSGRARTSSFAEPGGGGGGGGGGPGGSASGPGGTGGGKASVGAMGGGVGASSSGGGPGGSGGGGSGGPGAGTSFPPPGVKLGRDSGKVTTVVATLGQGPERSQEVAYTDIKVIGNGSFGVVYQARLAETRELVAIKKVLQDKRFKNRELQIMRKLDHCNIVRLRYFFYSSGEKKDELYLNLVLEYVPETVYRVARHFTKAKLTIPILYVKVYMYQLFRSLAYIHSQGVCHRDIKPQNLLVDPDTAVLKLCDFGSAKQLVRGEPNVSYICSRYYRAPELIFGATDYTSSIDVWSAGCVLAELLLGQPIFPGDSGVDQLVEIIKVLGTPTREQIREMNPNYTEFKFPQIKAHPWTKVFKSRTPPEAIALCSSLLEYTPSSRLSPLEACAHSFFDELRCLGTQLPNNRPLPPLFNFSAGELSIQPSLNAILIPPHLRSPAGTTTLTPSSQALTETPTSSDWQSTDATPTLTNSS
Description: Inhibition of GSK-3 alpha in human NB4 cells assessed as decreased nuclear to cytoplasmic ratio at 5 to 10 uM after 6 days by May-Grunwald Giemsa staining based light microscopy

[7] = target: T1, Glycogen synthase kinase-3 alpha; settings: NB-4, 5 to 10 uM; remark: listed apart in the source
Target sequence in this assay (P49840 2-483 limits assumed): as above

Danio rerio [8] = assay: Inhibition of embryonic development in wild type zebrafish embryo in E3 medium assessed as beta catenin activation at >30 uM dosed 24 hrs of post fertilization; assay type: functional, organism-based
[9] = target: T1, Glycogen synthase kinase-3 alpha; settings: NB-4, 5 to 10 uM; remark: listed apart in the source
Target sequence in this assay (P49840 2-483 limits assumed): as above
Description: Inhibition of GSK-3 alpha in human NB4 cells assessed as increased vacuolization at 5 to 10 uM after 6 days by May-Grunwald Giemsa staining based light microscopy

[10] = target: T1, Glycogen synthase kinase-3 alpha; settings: HL-60, 5 to 10 uM
Target sequence in this assay (P49840 2-483 limits assumed): as above
Description: Inhibition of GSK-3 alpha in human HL-60 cells assessed as decreased nuclear to cytoplasmic ratio at 5 to 10 uM after 6 days by May-Grunwald Giemsa staining based light microscopy

Danio rerio [11] = assay: Induction of morphological abnormality in wild type zebrafish embryo in E3 medium at 1 to 15 uM dosed 24 hrs of post fertilization; assay type: functional, organism-based
[12] = target: T1, Glycogen synthase kinase-3 alpha; settings: HL-60, 5 to 10 uM; remark: listed apart in the source
Target sequence in this assay (P49840 2-483 limits assumed): as above
Description: Inhibition of GSK-3 alpha in human HL-60 cells assessed as CD14 expression at 5 to 10 uM after 6 days by flow cytometry

[13] = target: T1, Glycogen synthase kinase-3 alpha; settings: NB-4, 5 to 10 uM; remark: listed apart in the source
Target sequence in this assay (P49840 2-483 limits assumed): as above
Description: Inhibition of GSK-3 alpha in human NB4 cells assessed as CD11b expression at 5 to 10 uM after 6 days by flow cytometry

[14] = target: T1, Glycogen synthase kinase-3 alpha; settings: HL-60, 5 to 10 uM; remark: listed apart in the source
Description: Inhibition of GSK-3 alpha in human HL-60 cells assessed as CD11b expression at 5 to 10 uM after 6 days by flow cytometry

[15] = target: T1, Glycogen synthase kinase-3 alpha; settings: NB-4, 5 to 10 uM; remark: listed apart in the source
Description: Inhibition of GSK-3 alpha in human NB4 cells assessed as CD11c expression at 5 to 10 uM after 6 days by flow cytometry

[16] = target: T1, Glycogen synthase kinase-3 alpha; settings: HL-60, 5 to 10 uM; remark: listed apart in the source
[17] = target: T1, Glycogen synthase kinase-3 alpha; settings: HL-60, 5 to 10 uM; remark: listed apart in the source
Description: Inhibition of GSK-3 alpha in human HL-60 cells assessed as CD11c expression at 5 to 10 uM after 6 days by flow cytometry

[18] = target: T1, Glycogen synthase kinase-3 alpha; settings: HL-60, 5 to 10 uM; remark: listed apart in the source
Description: Inhibition of GSK-3 alpha in human HL-60 cells assessed as increased vacuolization at 5 to 10 uM after 6 days by May-Grunwald Giemsa staining based light microscopy

[19] = target: T1, Glycogen synthase kinase-3 alpha
Target sequence in this assay (P49840 whole entry): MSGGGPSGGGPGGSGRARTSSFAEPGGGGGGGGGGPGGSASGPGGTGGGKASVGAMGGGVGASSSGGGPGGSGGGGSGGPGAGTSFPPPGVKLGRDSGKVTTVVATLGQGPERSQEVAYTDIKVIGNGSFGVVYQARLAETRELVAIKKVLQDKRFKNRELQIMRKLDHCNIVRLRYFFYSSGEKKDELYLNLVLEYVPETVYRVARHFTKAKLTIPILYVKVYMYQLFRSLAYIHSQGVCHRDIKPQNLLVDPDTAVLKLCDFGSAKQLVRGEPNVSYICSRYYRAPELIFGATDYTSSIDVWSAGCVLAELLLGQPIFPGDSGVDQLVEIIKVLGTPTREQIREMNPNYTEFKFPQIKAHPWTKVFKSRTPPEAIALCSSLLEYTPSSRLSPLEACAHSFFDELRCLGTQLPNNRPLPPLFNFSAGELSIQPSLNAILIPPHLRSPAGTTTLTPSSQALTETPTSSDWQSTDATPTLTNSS

[20] = target: Glycogen synthase kinase-3 beta (Homo sapiens, UniProt P49841)
Sequence of Glycogen synthase kinase-3 beta (P49841 whole entry): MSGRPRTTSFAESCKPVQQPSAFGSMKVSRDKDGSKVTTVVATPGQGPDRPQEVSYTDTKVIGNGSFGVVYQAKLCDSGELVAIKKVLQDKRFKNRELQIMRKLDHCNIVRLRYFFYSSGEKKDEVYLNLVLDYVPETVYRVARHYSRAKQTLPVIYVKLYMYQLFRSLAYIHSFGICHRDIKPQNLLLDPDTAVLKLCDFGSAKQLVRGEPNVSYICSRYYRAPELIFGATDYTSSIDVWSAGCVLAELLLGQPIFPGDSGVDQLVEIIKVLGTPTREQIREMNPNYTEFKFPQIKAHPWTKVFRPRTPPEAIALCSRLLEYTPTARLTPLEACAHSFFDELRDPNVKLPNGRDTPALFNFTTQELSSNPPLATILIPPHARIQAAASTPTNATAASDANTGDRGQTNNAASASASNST

Danio rerio [21] = assay: Induction of morphological abnormality wild type zebrafish embryo in E3 medium assessed as stunted and crooked tail phenotype at >30 uM dosed 24 hrs of post fertilization; assay type: functional, organism-based
[22] = target: T1, Glycogen synthase kinase-3 alpha; settings: NB-4, 5 to 10 uM; remark: listed apart in the source
Description: Inhibition of GSK-3 alpha in human NB4 cells assessed as CD14 expression at 5 to 10 uM after 6 days by flow cytometry

SMILES: Cc1ccc(-c2ccc(CSc3nnc(-c4ccc5c(c4)OCCO5)o3)cc2)cn1
- solubility thermodynamic [1]: < 1 µM

SMILES: N#Cc1cc(F)ccc1-c1ccc(CS(=O)(=O)c2nnc(-c3ccc4c(c3)OCCO4)o2)cc1
- inhibition (Sus scrofa [2]): 0%
- inhibition (Sus scrofa [3]): 0%

SMILES: N#Cc1cc(F)ccc1-c1ccc(CSc2nnc(-c3ccc4c(c3)OCCO4)o2)cc1
- solubility thermodynamic [1]: 1 µM (≈ 0.445 µg/mL)

SMILES: N#Cc1ccc(-c2ccc(CSc3nnc(-c4ccc5c(c4)OCCO5)o3)cc2)nc1
- Activity (Danio rerio [4]): Non-toxic
- solubility thermodynamic [1]: 181 µM (≈ 77.6 µg/mL)
- Activity (Danio rerio [5]): inactive

SMILES: NC(=O)c1cc(F)ccc1-c1ccc(CSc2nnc(-c3ccc4c(c3)OCCO4)o2)cc1
- inhibition [6]: Active
- inhibition [7]: Active
- Activity (Danio rerio [8]): Active
- inhibition [9]: Active
- inhibition [10]: Active
- Activity (Danio rerio [11]): inactive
- inhibition [12]: Active
- inhibition [13]: Active
- inhibition [14]: Active
- Activity (Danio rerio [4]): Non-toxic
- solubility thermodynamic [1]: 73 µM (≈ 33.8 µg/mL)
- inhibition [15]: Active
- inhibition [16]: Active
- inhibition [17]: Active
- inhibition [18]: Active
- IC50 [19]: 42 nM
- IC50 [20]: 140 nM
- Activity (Danio rerio [21]): Active
- inhibition [22]: Active

SMILES: Fc1ccc(-c2ccc(CSc3nnc(-c4ccc5c(c4)OCCO5)o3)cn2)cn1
- solubility thermodynamic [1]: 1 µM (≈ 0.422 µg/mL)

SMILES: N#Cc1ccc(-c2ccc(CSc3nnc(-c4ccc5c(c4)OCCO5)o3)cc2)cn1
- solubility thermodynamic [1]: 50 µM (≈ 21.4 µg/mL)

SMILES: Fc1ccc(-c2ccc(CSc3nnc(-c4ccc5c(c4)OCCO5)o3)cc2)cn1
- solubility thermodynamic [1]: 17 µM (≈ 7.16 µg/mL)

SMILES: Cc1ccc(-c2ccc(CSc3nnc(-c4ccc5c(c4)OCCO5)o3)cc2)nc1
- solubility thermodynamic [1]: 1 µM (≈ 0.417 µg/mL)
